Experimental data as given in ChEMBL document CHEMBL5390314, “Repurposing Azoles to Resolve Serotogenic Toxicity Associated with Linezolid to Combat Multidrug-Resistant Tuberculosis” (ACS Med Chem Lett, 2023).
In brackets after ≈: the same amount, converted by molar mass.

How the values were obtained:
[1] = system: Mycobacterium tuberculosis; experiment: Anti-mycobacterial activity against Mycobacterium tuberculosis H37Rv assessed as bacterial growth inhibition incubated for 7 days by microplate Alamar blue assay; format: functional; conditions: 168 h, time 7 day
[2] = system: Mycobacterium tuberculosis; experiment: Anti-mycobacterial activity against Mycobacterium tuberculosis clinical isolate assessed as bacterial growth inhibition incubated for 7 days by microplate Alamar blue assay; format: functional; conditions: 168 h, time 7 day
[3] = target: T1, Amine oxidase [flavin-containing] A (Homo sapiens, UniProt P21397); experiment: Inhibition of recombinant MAO-A (unknown origin) using kynuramine as a substrate by MAO assay; format: toxicity
T1 sequence (P21397 whole entry): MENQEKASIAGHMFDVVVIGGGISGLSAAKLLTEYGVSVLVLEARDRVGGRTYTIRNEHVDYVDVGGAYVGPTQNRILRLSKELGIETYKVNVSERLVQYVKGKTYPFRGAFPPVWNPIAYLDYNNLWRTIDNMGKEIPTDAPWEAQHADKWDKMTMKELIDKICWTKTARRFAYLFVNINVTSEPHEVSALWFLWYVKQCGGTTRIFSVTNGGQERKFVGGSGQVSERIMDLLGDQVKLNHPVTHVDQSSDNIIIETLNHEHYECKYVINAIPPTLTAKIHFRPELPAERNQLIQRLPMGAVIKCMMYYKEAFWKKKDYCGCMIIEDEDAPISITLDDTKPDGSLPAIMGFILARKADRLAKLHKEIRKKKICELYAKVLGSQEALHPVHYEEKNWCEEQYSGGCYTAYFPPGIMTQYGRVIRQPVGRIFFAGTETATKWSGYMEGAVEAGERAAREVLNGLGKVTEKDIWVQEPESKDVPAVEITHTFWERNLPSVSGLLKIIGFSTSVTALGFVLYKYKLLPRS

[4] = target: T2, Amine oxidase [flavin-containing] B (Homo sapiens, UniProt P27338); experiment: Inhibition of recombinant MAO-B (unknown origin) using benzylamine as a substrate by MAO assay; format: toxicity
T2 sequence (P27338 whole entry): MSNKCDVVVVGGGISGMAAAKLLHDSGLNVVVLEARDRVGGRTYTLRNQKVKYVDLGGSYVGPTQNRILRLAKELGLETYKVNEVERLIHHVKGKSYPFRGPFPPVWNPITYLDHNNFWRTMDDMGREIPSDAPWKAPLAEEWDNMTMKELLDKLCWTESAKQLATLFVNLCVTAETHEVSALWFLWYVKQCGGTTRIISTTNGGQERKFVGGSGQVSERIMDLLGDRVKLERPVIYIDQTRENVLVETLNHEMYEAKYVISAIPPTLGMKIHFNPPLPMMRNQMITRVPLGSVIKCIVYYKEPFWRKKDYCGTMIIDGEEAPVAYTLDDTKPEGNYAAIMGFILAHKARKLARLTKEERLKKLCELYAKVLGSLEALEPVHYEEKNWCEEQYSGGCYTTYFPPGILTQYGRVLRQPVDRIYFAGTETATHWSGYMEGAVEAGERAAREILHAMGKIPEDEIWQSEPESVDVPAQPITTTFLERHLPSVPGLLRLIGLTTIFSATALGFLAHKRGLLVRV

SMILES | MIC [1] | MIC50 [2] | MIC90 [2] | IC50 [3] | IC50 [4]
Clc1ccccc1C(c1ccccc1)(c1ccccc1)n1ccnc1 [CLOTRIMAZOLE] | 2.26 µM (≈ 0.779 µg/mL) | 0.87 µM (≈ 0.3 µg/mL) | 1.56 µM (≈ 0.538 µg/mL) | 25.4 µM | 31.2 µM
NNC(=O)c1ccncc1 [ISONIAZID] | – | < 0.2 µM | < 0.2 µM | – | –
CCC(C)n1ncn(-c2ccc(N3CCN(c4ccc(OCC5COC(Cn6cncn6)(c6ccc(Cl)cc6Cl)O5)cc4)CC3)cc2)c1=O (stereo unspecified) [ITRACONAZOLE] | > 35 µM | – | – | – | –
CC(=O)NC[C@H]1CN(c2ccc(N3CCOCC3)c(F)c2)C(=O)O1 [LINEZOLID] | 2.31 µM (≈ 0.779 µg/mL) | 0.34 µM (≈ 0.115 µg/mL) | 0.78 µM (≈ 0.263 µg/mL) | 6.52 µM | 0.619 µM
Clc1ccc(COC(Cn2ccnc2)c2ccc(Cl)cc2Cl)c(Cl)c1 (stereo unspecified) [MICONAZOLE] | 3.74 µM (≈ 1.56 µg/mL) | 1 µM (≈ 0.416 µg/mL) | 1.56 µM (≈ 0.649 µg/mL) | 37.8 µM | 13.2 µM
CC[C@@H]([C@H](C)O)n1ncn(-c2ccc(N3CCN(c4ccc(OC[C@@H]5CO[C@@](Cn6cncn6)(c6ccc(F)cc6F)C5)cc4)CC3)cc2)c1=O [POSACONAZOLE] | > 35 µM | – | – | – | –
CO[C@H]1/C=C/O[C@@]2(C)Oc3c(C)c(O)c4c(O)c(c(/C=N/N5CCN(C)CC5)c(O)c4c3C2=O)NC(=O)/C(C)=C\C=C\[C@H](C)[C@H](O)[C@@H](C)[C@@H](O)[C@@H](C)[C@H](OC(C)=O)[C@@H]1C [RIFAMPIN] | – | < 0.04 µM | < 0.04 µM | – | –
